Here are results for five molecules from patent publication US7645802B2 (Biovail Laboratories International SRL., priority 2005, dated 2010).

As usually defined, the solubility is the concentration that dissolves in the medium under given conditions.

The nature of data set [1]: forced degradation of bupropion HBr and HCl in the presence of excipients at 55° C., 55° C./100% RH, 100° C., 105° C. (incl. TGA at 100° C.). It is filed as physicochemical. The settings on record: in the presence of excipients, 55° C., 55° C./100% RH, 100° C., 105° C.
Description: Further forced degradation studies were carried out at 55° C., at 55° C. and 100% relative humidity, at 100° C., and at 105° C. on both the HCl and HBr Bupropion salts in the presence of excipients. […] FIG. 53 is a graph showing the loss of each salt over time in a TGA experiment at 100° C.
A further data set concerns CD-1 mice. Nature of the data set: clonic convulsions in CD-1 mice after intraperitoneal dosing (range finding and main study). On the procedure: Two studies were performed to investigate the relative proconvulsant properties of the two bupropion salts. In the first instance a range finding study was performed to establish the appropriate dose range for the main study. In each study the mice were divided into two dose groups and injected intraperitoneally with either bupropion HCl or bupropion HBr.
A clonic convulsion was defined as a stiffening of the animal followed by jerking movements. The convulsions were classified as mild, moderate and severe according to the following descriptions.
Mild: Head and tail slightly extended and little jerking
Moderate: Head and tail fully extended with some jerking
Severe: Head and tail fully extended with strong jerking
Post-treatment findings recorded included continuous observation for 120 minutes for evidence of clonic convulsions, and intermittent (fixed) observations for 24 hours for other signs, including tonic convulsions, movement, activity, paralysis, gait and evidence of recovery.

The test system of the next data set is mice. Nature of the data set: Proconvulsant properties of bupropion salts: clonic convulsions in mice. The settings on record: for Mean Number of Convulsions/Mouse / Total Number of convulsions: N=13. As to the method:
Number of convulsions and the intensity of the convulsions were recorded.
Mild: Head and tail slightly extended and little jerking; Moderate: Head and tail fully extended with some jerking; Severe: Head and tail fully extended with strong jerking. […] Step 2: To further investigate the patterns of convulsion occurrence using loglinear Poisson regression models. The number of convulsions was analyzed using the loglinear Poisson regression models with formulation, dose, and severity as predictors.

Data set [2] is described as follows: Closed vial / closed glass bottle stability (40° C./75% RH) of bupropion salt APIs. Type of data set: physicochemical.
Data set [3] in a line: Dynamic Vapour Sorption (DVS) analysis.
Data set [4] is described as follows: Solubility and other physical properties, Bupropion HBr vs Bupropion HCl. The settings on record: HCl from Erregierre, HBr from Chemi; hydrobromide.
In data set [5] the test system is chemically-induced seizures (induced by pentylenetetrazole) in mice. The settings on record: cited from earlier work.
Data set [6] in a line: moisture content by KF and pH (aq. 0.5%) of bupropion salts. It is filed as physicochemical. On the procedure:
The eight salts were first evaluated by HPLC, KF, pH and DSC for purity, water content, aqueous pH and possible polymorphs.
(§1) The salts were analyzed by DSC (at 10° C./min from 30° C. up to 400° C.) and the pH (aq. 0.5%), and the moisture content by KF were also measured. The TGA was performed on the HCl, maleate, tosylate and HBr salts.

Another data set is described as follows: TGA of bupropion salts. The settings on record: for residue (TGA): at 400° C.; for weight lost (TGA): from room temperature to 100° C. It is filed as physicochemical. As to the method: 2-5 mg of each salt was placed in an aluminium pan and covered with its lid. DSC was run for each sample at the rate of 10 degrees C./min (for HBr salt, different rates were used to investigate for polymorphs) from 30 degrees C. to 400 degrees C. TGA was also used for each of the HBr, HCl, maleate and tosylate salts.
as §1

Data set [7] is described as follows: forced degradation stability study of bupropion salts in vials, 40 degrees C./75% RH, HPLC assay and impurities.
Setting [8] is: 100 mg/kg i.p., pooled data N = 13/dose group, hydrobromide.
Where [9] appears, read: 150 mg/kg i.p., pooled data N = 13/dose group, hydrobromide.
Setting [10] is: 150 mg/kg, Moderate, hydrobromide.
Where [11] appears, read: 150 mg/kg, Severe, hydrobromide.
[12] abbreviates: 10-Days, closed glass bottle 40 C./75% RH, HBr Lot# STN07491, HCl Lot# STN06973, hydrobromide.
The mark [13] stands for this setting: 10 Days, closed glass bottle 40 C./75% RH, HBr Lot# STN07492, HCl Lot# STN06978, hydrobromide.
Where [14] appears, read: 14-Days, closed glass bottle 40° C./75% RH, HBr Lot# STN07492, HCl L# STN06973, hydrobromide.
[15] abbreviates: 24 Days, closed glass bottle 40° C./75% RH, HBr Lot# STN07492, HCl L# STN06973, hydrobromide.
Setting [16] is: Initial, closed glass bottle 40 C./75% RH, HBr Lot# STN07491, HCl Lot# STN06973, hydrobromide.
Where [17] appears, read: Initial, closed glass bottle 40 C./75% RH, HBr Lot# STN07492, HCl Lot# STN06978, hydrobromide.
The mark [18] stands for this setting: Initial, closed glass bottle 40° C./75% RH, HBr Lot# STN07492, HCl L# STN06973, hydrobromide.
The mark [19] stands for this setting: after re-crystallization in acetonitrile/hexane or acetonitrile/EtOAc.

Structures can show the parent of a compound that is named as a salt.

With `CC(NC(C)(C)C)C(=O)c1cccc(Cl)c1` (centres unmarked) [Bupropion HBr, bupropion hydrobromide], the “stability / degradation compared to bupropion HCl” value in [1] is given as “significant improvements in stability compared to bupropion HCl”. The “Mean Intensity of Convulsions/Mouse % of Total: Mild” value is reported as 90.0 % of Total in the data set with CD-1 mice (setting [8]) and 21.3 % of Total in the data set with CD-1 mice (setting [9]). The “Mean Intensity of Convulsions/Mouse % of Total: Moderate” value in the data set with CD-1 mice (setting [8]) is on record as 10.0 % of Total; in the data set on CD-1 mice (setting [9]), 25.7 % of Total. The “Mean Intensity of Convulsions/Mouse % of Total: Severe” value was 0.0 % of Total with CD-1 mice (setting [8]) and 53.0 % of Total with CD-1 mice (setting [9]). For the same molecule, the “Mean Number of Convulsions/Mouse” value in the data set on CD-1 mice (setting [8]) is given as 0.8; in the data set on CD-1 mice (100 mg/kg i.p., range-finding study, N = 3/dose group, hydrobromide), 0; with CD-1 mice (100 mg/kg i.p., second (main) study, N = 10/dose group, hydrobromide) it was 1.0; in the data set on CD-1 mice (setting [9]), 46.6; in the data set on CD-1 mice (150 mg/kg i.p., range-finding study, N = 3/dose group, hydrobromide), 11.0; in the data set with CD-1 mice (150 mg/kg i.p., second (main) study, N = 10/dose group, hydrobromide), 57.3. Further, the “Mean Number of Convulsions/Mouse” value in the data set with mice (100 mg/kg, Mild, hydrobromide) is 0.69; in the data set with mice (100 mg/kg, Moderate), 0.08; in the data set with mice (100 mg/kg, Severe, 120 min observation, hydrobromide), 0.0; in the data set on mice (150 mg/kg, Mild, hydrobromide), 9.92; in the data set with mice (setting [10]), 12.00; in the data set on mice (setting [11]), 24.69. The “numbers of mice that had convulsions in the dose group” value is 3/13 in the data set with CD-1 mice (setting [8]); 3/10 in the data set on CD-1 mice (100 mg/kg i.p., second (main) study, N = 10/dose group); 11/13 in the data set on CD-1 mice ([…] i.p., pooled data N = 13/dose group, hydrobromide); 8/10 in the data set with CD-1 mice ([…] i.p., second (main) study, N = 10/dose group, hydrobromide). Further, in the data set on CD-1 mice (range finding study), the “recovery from other treatment-related signs” value is recorded as “tendency to recover more quickly”. Further, in the data set on CD-1 mice (range finding study, i.p., hydrobromide), the “threshold for tonic convulsions” value amounted to 125 mg/kg. The “Mean Number of Convulsions/Mouse, cumulative” value with mice (100 mg/kg, All, hydrobromide) was 0.77; in the data set with mice (100 mg/kg, Severe + Moderate, hydrobromide) it was 0.08; with mice (150 mg/kg, All, hydrobromide), 46.61; with mice (150 mg/kg, Severe + Moderate, hydrobromide), 36.69. Moreover, the “Total Number of convulsions” value with mice (100 mg/kg, Mild, hydrobromide) was 9; with mice (100 mg/kg, Severe, hydrobromide), 0; with mice (150 mg/kg, Mild, hydrobromide) it was 129; with mice (setting [10]), 156; with mice (setting [11]) it was 321. For the same molecule, the “% Assay” value in data set [2] (setting [12]) came to 98.2%; in data set [2] (setting [13]), 99.2%; in [2] (setting [14]), 98.8%; in data set [2] (setting [15]), 99.5%; in [2] (setting [16]), 99.5%; in [2] (setting [17]) it was 99.6%. For the same molecule, in data set [2] (setting [18]), the “% Assay” value is reported as 99.6%. The “% Impurities 3-CBZ” value in [2] (setting [12]) is 0.070%; in data set [2] (setting [13]), 0.031%; in [2] (setting [14]), 0.015%; in data set [2] (setting [15]) it was 0.022%; in [2] (setting [16]), 0.011%; in [2] (setting [17]) it was 0.007%. Also, the “% Impurities 3-CBZ” value in data set [2] (setting [18]) is reported as 0.007%. The “% Impurities 20U78/dilu” value in data set [2] (setting [12]) was found to be 0.051%; in data set [2] (setting [13]) it was 0.044%; in data set [2] (setting [14]) it was 0.048%; in data set [2] (setting [15]), 0.038%; in data set [2] (setting [16]), 0.041%; in data set [2] (setting [17]), 0.041%. Moreover, in data set [2] (setting [18]), the “% Impurities 20U78/dilu” value is recorded as 0.044%. The “% Impurities 827U76” value is 0.039% in data set [2] (setting [12]); 0.012% in data set [2] (14-Days, closed glass bottle 40° C./75% RH, HBr Lot# STN07492, HCl L# STN06973); 0.016% in [2] (setting [15]). For the same molecule, the “% Impurities 852U77” value is 0.125% in data set [2] (setting [12]); 0.055% in data set [2] (setting [13]); 0.058% in data set [2] (setting [14]); 0.052% in data set [2] (setting [15]); 0.009% in data set [2] (setting [18]). Also, the “% Impurities Total (%)” value was found to be 0.42% in data set [2] (setting [12]); 0.24% in data set [2] (setting [13]); 0.23% in [2] (setting [14]); 0.23% in data set [2] (setting [15]); 0.17% in data set [2] (setting [16]); 0.23% in data set [2] (setting [17]). In addition, in data set [2] (setting [18]), the “% Impurities Total (%)” value came to 0.16%. In addition, the “% Impurities Total unknown” value in [2] (setting [12]) is on record as 0.129%; in data set [2] (setting [13]), 0.15%; in data set [2] (setting [14]), 0.105%; in data set [2] (setting [15]), 0.104%; in data set [2] (setting [16]), 0.129%; in [2] (setting [17]), 0.194%. The “% Impurities Total unknown” value in data set [2] (setting [18]) stood at 0.098%. The solubility was determined as 92 mg/mL in “physchem” (organic solvent or mixture, EtOH); 12 mg/mL in the data set “physchem” (organic solvent or mixture, IPA); 143 mg/mL in “physchem” (water). In addition, in data set [3] (0% RH-90% RH), the “hygroscopicity (DVS, words)” value is “non-hygroscopic”. Moreover, the “maximum water uptake (DVS)” value in data set [3] (at 90% RH) was 0.14 % weight. The “PS (Malvern) 10%” value in [4] is 10% 72 μm. Besides, the “PS (Malvern) 50%” value in data set [4] worked out at 50% 245 μm. Also, the “PS (Malvern) 90%” value in data set [4] amounted to 90% 657 μm. For the same molecule, the “moisture content KF” value in [4] amounted to 0.00%. Further, the “pH (aq. 0.5%)” value in data set [4] was 5.92.
Regarding `Br` [bromide], the “ED50 / therapeutic dose level against pentylenetetrazole-induced seizures” value in data set [5] is reported as 910 mg/kg.
`[Br-].[Na+]` [sodium bromide]: the “ED50 / therapeutic dose level against pentylenetetrazole-induced seizures” value in data set [5] is 910 mg/kg.
Turning to Bupropion maleate, in [6] (salt as received), the “moisture content KF” value worked out at 0.10% and the “pH of the aqueous solution of 0.5%” value was determined as 4.29. Also, in “TGA of bupropion salts”, the “thermally stable to at least (TGA)” value was “at least 150 °C”, the “residue (TGA)” value is “minimal residues” and the “weight lost (TGA)” value was determined as 1.3%. Also, in data set [7], the “In IPA/EtOH, 3-CBZ: order of impurity content” value is given as “maleate > HBr > HCl > Fumarate”; the “In IPA/EtOH, 852U77: order of impurity content” value is “fumarate > HBr ≈HCl ≈maleate ≈tosylate”; the “In IPA/EtOH, Total imp.: order of impurity content” value was “fumarate > maleate > HBr > HCl > tosylate”; the “In water, 3-CBZ: order of impurity content” value is “HCl > HBr≈maleate≈fumarate”. In data set [7], the “In water, 852U77: order of impurity content” value was “fumarate > HBr > maleate > HCl” and the “In water, Total imp.: order of impurity content” value is recorded as “fumarate > HBr > HCl > tosylate > maleate”.
Consider Bupropion tosylate, for which, in data set [6] (setting [19]), the “moisture content KF” value is given as 0.23% and the pH came out at 5.88. Moreover, the “moisture content KF” value in data set [6] (re-crystallized sample retested after two months) stood at 0.18%. In data set [6] (salt as received), the “moisture content KF” value amounted to 1.71% and the “pH of the aqueous solution of 0.5%” value came to 5.56. In “TGA of bupropion salts”, the “residue (TGA)” value is on record as 10.3% and the “weight lost (TGA)” value was 1.3%. Besides, in [7], the “In IPA/EtOH, 852U77: order of impurity content” value is recorded as “fumarate > HBr ≈HCl ≈maleate ≈tosylate”; the “In IPA/EtOH, Total imp.: order of impurity content” value is “fumarate > maleate > HBr > HCl > tosylate”; the “In water, Total imp.: order of impurity content” value is “fumarate > HBr > HCl > tosylate > maleate”.
